Source: the NIST ThermoML archive (doi:10.1021/je900124n)
Where “and” joins values, the source holds several entries; their conditions need not be identical. Identical values can stand only once.

Conditions: Fluid (supercritical or subcritical phases), Buoyancy - hydrostatic balance with magnetic suspension - two sinkers

CCC [propane]
Conditions | mass density
340 K, 34960 kPa | 514.104 kg/m3
340 K, 34961 kPa | 514.106 kg/m3
340 K, 34962 kPa | 514.105 kg/m3
345 K, 2494.9 kPa | 58.0748 kg/m3 and 58.0791 kg/m3 and 58.0771 kg/m3
345 K, 2495 kPa | 58.0845 kg/m3 and 58.0787 kg/m3
350 K, 1942.1 kPa | 37.8566 kg/m3 and 37.8552 kg/m3
350 K, 1942.5 kPa | 37.8654 kg/m3 and 37.8643 kg/m3
350 K, 1942.6 kPa | 37.8656 kg/m3
350 K, 2573.5 kPa | 58.0372 kg/m3 and 58.0366 kg/m3
350 K, 2573.6 kPa | 58.041 kg/m3 and 58.0413 kg/m3 and 58.0386 kg/m3
350 K, 2844.7 kPa | 70.6094 kg/m3
350 K, 2844.9 kPa | 70.6242 kg/m3
350 K, 2845 kPa | 70.6246 kg/m3
350 K, 2845.1 kPa | 70.6278 kg/m3 and 70.6365 kg/m3
350 K, 2845.2 kPa | 70.6334 kg/m3
350 K, 2845.3 kPa | 70.6504 kg/m3 and 70.6463 kg/m3
350 K, 3505.9 kPa | 392.661 kg/m3
350 K, 3506 kPa | 392.666 kg/m3
350 K, 3506.2 kPa | 392.664 kg/m3
350 K, 3506.3 kPa | 392.667 kg/m3
350 K, 3506.4 kPa | 392.663 kg/m3 and 392.666 kg/m3
350 K, 3506.5 kPa | 392.666 kg/m3
350 K, 12070 kPa | 449.428 kg/m3 [middle of 6 runs]
350 K, 12071 kPa | 449.434 kg/m3 and 449.429 kg/m3
350 K, 24455 kPa | 484.992 kg/m3 and 484.989 kg/m3
350 K, 24456 kPa | 484.992 kg/m3
355 K, 2650.7 kPa | 57.9954 kg/m3 [middle of 4 runs]
355 K, 3003.3 kPa | 73.4591 kg/m3 [middle of 6 runs]
355.01 K, 3003.3 kPa | 73.4598 kg/m3
359 K, 3436 kPa | 96.2198 kg/m3
359 K, 3436.4 kPa | 96.2687 kg/m3 and 96.2618 kg/m3 and 96.2668 kg/m3
359 K, 3436.5 kPa | 96.2652 kg/m3
359.99 K, 15760 kPa | 448.817 kg/m3
359.99 K, 15761 kPa | 448.823 kg/m3
360 K, 303.73 kPa | 4.597 kg/m3 and 4.5969 kg/m3
360 K, 303.74 kPa | 4.597 kg/m3 and 4.5971 kg/m3
360 K, 539.35 kPa | 8.3504 kg/m3
360 K, 539.36 kPa | 8.3506 kg/m3 and 8.3504 kg/m3 and 8.3503 kg/m3
360 K, 901.24 kPa | 14.4832 kg/m3 and 14.4833 kg/m3
360 K, 901.25 kPa | 14.4835 kg/m3 and 14.4836 kg/m3
360 K, 1361.2 kPa | 23.0769 kg/m3 and 23.078 kg/m3
360 K, 1361.3 kPa | 23.0792 kg/m3
360 K, 1361.4 kPa | 23.0819 kg/m3 and 23.0827 kg/m3
360 K, 2033.2 kPa | 37.8651 kg/m3
360 K, 2033.3 kPa | 37.8677 kg/m3
360 K, 2033.4 kPa | 37.8707 kg/m3
360 K, 2033.5 kPa | 37.8723 kg/m3 and 37.8724 kg/m3
360 K, 2725.4 kPa | 57.912 kg/m3
360 K, 2725.5 kPa | 57.9157 kg/m3
360 K, 2725.6 kPa | 57.9165 kg/m3
360 K, 3108.3 kPa | 73.4362 kg/m3 [middle of 6 runs]
360 K, 3108.4 kPa | 73.4363 kg/m3
360 K, 3467.9 kPa | 96.3808 kg/m3 and 96.381 kg/m3
360 K, 3468 kPa | 96.3801 kg/m3 and 96.3793 kg/m3 and 96.3804 kg/m3
360 K, 3730.9 kPa | 352.636 kg/m3 and 352.637 kg/m3
360 K, 3731 kPa | 352.635 kg/m3
360 K, 3731.1 kPa | 352.636 kg/m3
360 K, 5948.1 kPa | 392.145 kg/m3
360 K, 5948.8 kPa | 392.137 kg/m3
360 K, 5949.1 kPa | 392.137 kg/m3
360 K, 5949.4 kPa | 392.137 kg/m3 and 392.14 kg/m3 and 392.139 kg/m3
360 K, 5949.5 kPa | 392.138 kg/m3
360 K, 5949.7 kPa | 392.139 kg/m3
360 K, 7930.9 kPa | 409.823 kg/m3
360 K, 7931 kPa | 409.821 kg/m3
360 K, 7931.2 kPa | 409.824 kg/m3
360 K, 7931.3 kPa | 409.824 kg/m3
360 K, 11923 kPa | 433.101 kg/m3 [middle of 5 runs]
360 K, 15761 kPa | 448.822 kg/m3 and 448.82 kg/m3 and 448.823 kg/m3
360 K, 15762 kPa | 448.821 kg/m3 and 448.822 kg/m3
360 K, 16074 kPa | 449.912 kg/m3
360 K, 16075 kPa | 449.912 kg/m3 and 449.911 kg/m3
360 K, 19910 kPa | 462.101 kg/m3 and 462.102 kg/m3
360 K, 23890 kPa | 472.673 kg/m3 and 472.674 kg/m3 and 472.672 kg/m3
360 K, 23891 kPa | 472.674 kg/m3
360 K, 30126 kPa | 486.462 kg/m3
360 K, 30127 kPa | 486.462 kg/m3
360 K, 35259 kPa | 496.072 kg/m3
360 K, 35260 kPa | 496.073 kg/m3 and 496.072 kg/m3
360 K, 35262 kPa | 496.074 kg/m3
360.01 K, 901.24 kPa | 14.4833 kg/m3
360.01 K, 3108.3 kPa | 73.4355 kg/m3
365 K, 3675.6 kPa | 100.804 kg/m3 and 100.799 kg/m3 and 100.803 kg/m3
365 K, 3675.7 kPa | 100.805 kg/m3
365 K, 4200.9 kPa | 337.532 kg/m3 and 337.539 kg/m3 and 337.537 kg/m3
365 K, 4201.1 kPa | 337.536 kg/m3
365 K, 4201.2 kPa | 337.534 kg/m3
365 K, 4201.3 kPa | 337.537 kg/m3 and 337.54 kg/m3
365 K, 4201.5 kPa | 337.541 kg/m3
369 K, 4143.7 kPa | 146.446 kg/m3 [middle of 6 runs]
369 K, 4143.8 kPa | 146.438 kg/m3 and 146.437 kg/m3
369 K, 4197.8 kPa | 281.2 kg/m3 and 281.206 kg/m3
369 K, 4197.9 kPa | 281.145 kg/m3
369 K, 4198 kPa | 281.222 kg/m3 [middle of 4 runs]
369 K, 4198.1 kPa | 281.241 kg/m3
369.82 K, 4245.5 kPa | 199.588 kg/m3 and 199.89 kg/m3 and 199.647 kg/m3
369.82 K, 4245.6 kPa | 199.834 kg/m3
369.82 K, 4246.6 kPa | 245.595 kg/m3
369.82 K, 4985.6 kPa | 337.371 kg/m3
369.82 K, 19374 kPa | 448.259 kg/m3
369.82 K, 19375 kPa | 448.259 kg/m3 [middle of 7 runs]
369.83 K, 3309.2 kPa | 73.3627 kg/m3
369.83 K, 3309.3 kPa | 73.3633 kg/m3 and 73.3643 kg/m3 and 73.3637 kg/m3
369.83 K, 3309.4 kPa | 73.3693 kg/m3 [middle of 4 runs]
369.83 K, 4186.1 kPa | 146.569 kg/m3
369.83 K, 4186.2 kPa | 146.57 kg/m3 [middle of 6 runs]
369.83 K, 4186.3 kPa | 146.572 kg/m3
369.83 K, 4245.5 kPa | 199.889 kg/m3
369.83 K, 4245.6 kPa | 200.17 kg/m3 and 199.849 kg/m3 and 199.989 kg/m3
369.83 K, 4246.6 kPa | 245.029 kg/m3 and 245.142 kg/m3
369.83 K, 4246.7 kPa | 245.511 kg/m3 and 245.436 kg/m3
369.83 K, 4246.8 kPa | 245.25 kg/m3 and 245.225 kg/m3
369.83 K, 4246.9 kPa | 245.368 kg/m3
369.83 K, 4284.4 kPa | 281.216 kg/m3
369.83 K, 4284.5 kPa | 281.229 kg/m3 and 281.217 kg/m3
